PMC5508548 (Bioorganic & medicinal chemistry letters, 2017)
Blank lines part the entries; values can stand above or below the molecule they belong to.

How the values were obtained:
[1] = IV pharmacokinetics in SD rat; format: in vivo; conditions: Sprague-Dawley, plasma
[2] = tested on: CYP450s (panel); assay: CYP450 inhibition profile; format: in vitro ADME
[3] = In vitro clearance, rat; format: in vitro ADME; conditions: for CLHEP, rat: in vitro predicted, well-stirred equation without fuplasma/fumic terms; for CLHEP, rat / CLint scaled: rat; for CLint scaled: liver microsomes
[4] = In vitro clearance, human; format: in vitro ADME; conditions: for CLHEP, human: in vitro predicted; for CLint scaled: liver microsomes
[5] = tested on: GABAA receptor; assay: GABAA functional assay; format: biochemical; conditions: at 10 μM
[6] = IV and PO pharmacokinetics in cynomolgus monkey; format: in vivo
[7] = tested on: L-DOPA-induced dyskinesia; conditions: PD-LID mice and NHPs; cited from earlier work
[8] = tested on: dog M2; assay: Muscarinic subtype selectivity, dog M2; format: cell-based; conditions: data not shown
[9] = tested on: L-DOPA-induced dyskinesia; conditions: NHPs, 10 mg/kg IV; cited from earlier work
[10] = tested on: CYP1A2, CYP2B6, CYP3A4; assay: CYP induction in cryopreserved human hepatocytes; format: in vitro ADME; conditions: human
[11] = tested on: CYP 1A2/2B6/3A4; assay: CYP induction in cryopreserved human hepatocytes; format: in vitro ADME; conditions: 48 hr incubation, enzyme activity readout
[12] = target: cyno M4 (Macaca fascicularis, UniProt G7PQB4); assay: ACh CRC fold-shift Ca2+ mobilization and ACh competition binding; format: cell-based, cynomolgus monkey; conditions: operational model cooperativity; n=3–4
[13] = Oral pharmacokinetics in rat; format: in vivo
[14] = IV and PO pharmacokinetics in dog; format: in vivo
[15] = tested on: human M1-3,5; assay: Muscarinic subtype selectivity, human M1-3,5; format: cell-based; conditions: read-out: EC50 at human M1-3,5
[16] = In vitro metabolite identification in cryopreserved hepatocytes; format: in vitro ADME, rat, dog, cynomolgus monkey, human
[17] = Reactive metabolism/bioactivation; format: in vitro ADME; conditions: human hepatic microsomes
[18] = tested on: CYP450; assay: Human CYP450 phenotyping; format: in vitro ADME
[19] = tested on: cyno M2; assay: Muscarinic subtype selectivity, cyno M2; format: cell-based, cynomolgus monkey; conditions: data not shown
[20] = tested on: rat M1-3,5; assay: Muscarinic subtype selectivity, rat M1-3,5; format: cell-based; conditions: read-out: EC50 at rat M1-3,5
[21] = tested on: TA98 and TA100 strains; assay: Mini-Ames assay; conditions: TA98 and TA100 strains ± S9

- clearance [1]: 9 mL/min/kg
- IC50 [2]: < 10 µM
- CLHEP, rat [3]: 59.9 mL/min/kg
- CLint scaled [3]: 415 mL/min/kg
- CLHEP, human [4]: 15.2 mL/min/kg
- CLint scaled [4]: 20.1 mL/min/kg
Compound: Cc1nnc2sc(C(=O)NCc3ccc(-c4ccncc4)cc3)c(N)c2c1C [8f]

- clearance [1]: 3.6 mL/min/kg
- CLHEP, rat [3]: 31.5 mL/min/kg
- CLint scaled [3]: 57.1 mL/min/kg
- CLHEP, human [4]: 17.8 mL/min/kg
- CLint scaled [4]: 19.6 mL/min/kg
Compound: Cc1nnc2sc(C(=O)NCc3ccc(-c4ccnc(F)c4)cc3)c(N)c2c1C [8k]

- clearance [1]: 1.7 mL/min/kg
- CLHEP, rat [3]: 37.7 mL/min/kg
- CLint scaled [3]: 81.6 mL/min/kg
- CLHEP, human [4]: 17.1 mL/min/kg
- CLint scaled [4]: 20.2 mL/min/kg
Compound: Cc1nnc2sc(C(=O)NCc3ccc(-c4ccc(F)nc4)cc3)c(N)c2c1C [8m]

Compound: Cc1nnc2sc(C(=O)NCc3ccc(-c4cccnc4F)cc3)c(N)c2c1C [8p, 5-amino-N-(4-(2-fluoropyridine-3-yl)benzyl)-3,4-dimethylthieno[2,3-c] pyridazine-6-carboxamide]
- GABAA functional assay activity [5]: no activity
- oral bioavailability ([6]; 10 mg/kg solution dose of HCl salt): 4.7 %F
- clearance ([6]; plasma, iv): 9.3 mL/min/kg
- clearance [1]: 1.6 mL/min/kg
- IC50 [2]: ≥ 11 µM
- deficits in synaptic plasticity and behavior [7]: ameliorates deficits in synaptic plasticity and behavior
- activity at dog M2 [8]: inactive
- CLHEP, rat [3]: 46.0 mL/min/kg
- predicted rat CLhep, revised prediction method ([3]; inclusion of binding terms in the well-stirred model): 0.49 mL/min/kg
- CLint scaled [3]: 134 mL/min/kg
- dyskinesia scores and involuntary movements [9]: significantly reduces dyskinesia scores and involuntary movements
- EC50 at 48 h [10]: > 50 µM
- CYP 1A2/2B6/3A4 induction Emaxs [11]: < 2
- α at cyno M4 [12]: 28.2
- β at cyno M4 [12]: 2.5
- oral bioavailability ([13]; 10 mg/kg solution dose): 61 % F
- oral bioavailability ([13]; HCl salt of 8p dosed as a suspension): 54 %F
- oral bioavailability ([14]; 3 mg/kg suspension dose of the HCl salt): 47 %F
- clearance ([14]; plasma, iv): 5.5 mL/min/kg
- EC50 [15]: > 30 µM
- human unique metabolites ([16]; cryopreserved hepatocytes, multiple species): no evidence for human unique metabolites
- turnover in cryopreserved hepatocytes ([16]; rat, dog, cynomolgus monkey, human hepatocytes): low turnover
- GSH conjugates [17]: no significant levels of GSH conjugates
- CYPs contributing to metabolism [18]: 3A4 (predominant), 2D6, 2C19, 2C9 and 1A2
- activity at cyno M2 [19]: inactive
- EC50 [20]: > 30 µM
- CLHEP, human [4]: 14.8 mL/min/kg
- CLint scaled [4]: 19.2 mL/min/kg
- mini-Ames mutagenicity [21]: negative
